Source: patent US20240261224A1, “FORMULATION OF A PAN-JAK INHIBITOR” (KINASET THERAPEUTICS, INC., priority 2022, published 2024)

What was measured:
JAK2 = JAK2 (Homo sapiens, UniProt O60674); conditions: cited from earlier work
[1] = Phase 1 Part 2 plasma pharmacokinetics (mild asthma); assay type: in vivo, human; conditions: Day 10
Text: Day 10 pharmacokinetic parameters for Parts 2 and 3 of Phase I are summarized below in Table 28. Part 2 involved the administration of 4 different dose regimens, to subjects with mild asthma naïve to ICS therapy, over a 10-day period. Each separate cohort comprised 6 subjects receiving active treatment with 2 receiving matching placebo. Blood samples were collected to enable the measurement of Compound I concentrations in plasma. The resultant data was used to determine the PK parameters at Day 10 representing the Day on which the final dose was received.

JAK2, sequence (O60674 whole entry): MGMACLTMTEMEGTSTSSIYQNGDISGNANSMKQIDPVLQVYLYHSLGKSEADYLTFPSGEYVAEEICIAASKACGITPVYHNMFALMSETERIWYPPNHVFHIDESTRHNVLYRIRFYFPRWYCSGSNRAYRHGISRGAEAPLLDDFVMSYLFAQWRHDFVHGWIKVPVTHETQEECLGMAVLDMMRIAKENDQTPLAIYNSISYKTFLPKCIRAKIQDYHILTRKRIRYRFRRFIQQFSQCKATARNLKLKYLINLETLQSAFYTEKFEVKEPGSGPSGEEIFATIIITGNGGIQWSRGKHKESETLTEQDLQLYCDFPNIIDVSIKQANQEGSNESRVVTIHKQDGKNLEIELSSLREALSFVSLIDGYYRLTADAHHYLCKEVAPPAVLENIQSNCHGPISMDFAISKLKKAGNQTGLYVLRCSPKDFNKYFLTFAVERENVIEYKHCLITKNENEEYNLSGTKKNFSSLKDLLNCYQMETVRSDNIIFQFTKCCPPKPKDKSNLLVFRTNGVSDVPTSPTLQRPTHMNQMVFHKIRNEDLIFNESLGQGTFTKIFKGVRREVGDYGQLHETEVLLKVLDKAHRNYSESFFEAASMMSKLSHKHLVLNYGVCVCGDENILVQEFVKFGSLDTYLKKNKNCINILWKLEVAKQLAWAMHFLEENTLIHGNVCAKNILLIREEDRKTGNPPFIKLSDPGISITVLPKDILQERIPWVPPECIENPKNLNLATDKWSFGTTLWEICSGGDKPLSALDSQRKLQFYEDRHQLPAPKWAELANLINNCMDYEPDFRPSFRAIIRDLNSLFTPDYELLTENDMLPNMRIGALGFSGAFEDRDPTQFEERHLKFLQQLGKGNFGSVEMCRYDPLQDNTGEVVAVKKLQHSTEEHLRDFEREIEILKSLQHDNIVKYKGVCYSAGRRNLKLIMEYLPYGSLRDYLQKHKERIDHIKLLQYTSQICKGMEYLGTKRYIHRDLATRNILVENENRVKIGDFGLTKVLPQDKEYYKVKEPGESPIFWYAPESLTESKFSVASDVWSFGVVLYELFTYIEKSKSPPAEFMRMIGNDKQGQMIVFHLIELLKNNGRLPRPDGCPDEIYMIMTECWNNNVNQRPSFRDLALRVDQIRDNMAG

Cn1c(=O)n([C@H]2CCCN(C(=O)CC#N)C2)c2nc(-c3cnn4ccccc34)ccc21 [Compound I, (S)-3-(3-(1-methyl-2-oxo-5-(pyrazolo[1,5-a]pyridine-3-yl)-1H-imidazo[4,5-b]pyridine-3(2H)-yl)piperidin-1-yl)-3-oxopropanenitrile]
Inhibition of JAK2 (JAK2): potent inhibitor | AUC0-12 hours Max ([1]; 0.6 mg QD): 23,507 pg · h/ml | AUC0-12 hours Min ([1]; 0.6 mg QD): 7,596 pg · h/ml | AUC0-24 hours Max ([1]; 0.6 mg QD): 36,466 pg · h/ml | AUC0-24 hours Min ([1]; 0.6 mg QD): 8,579 pg · h/ml | AUC0-last non-zero Max ([1]; 0.6 mg QD): 47,928 pg · h/ml | AUC0-last non-zero Min ([1]; 0.6 mg QD): 8,579 pg · h/ml | AUC0-∞ Max ([1]; 0.6 mg QD): 52,842 pg · h/ml | AUC0-∞ Min ([1]; 0.6 mg QD): 8,783 pg · h/ml | AUCover dosing interval Max ([1]; 0.6 mg QD): 36,466 pg · h/ml | AUCover dosing interval Min ([1]; 0.6 mg QD): 8,579 pg · h/ml | Cmax Max ([1]; 0.6 mg QD): 2,750 pg/ml | Cmax Min ([1]; 0.6 mg QD): 1,020 pg/ml | Ctrough Geometric mean ([1]; 0.6 mg QD): 234 pg/mL | Ctrough Max ([1]; 0.6 mg QD): 913 pg/mL | Ctrough Mean ([1]; 0.6 mg QD): 362 pg/mL | Ctrough Min ([1]; 0.6 mg QD): 0.034 ng/mL | AUC0-12 hours Max ([1]; 2 mg QD): 88,203 pg · h/ml | AUC0-12 hours Min ([1]; 2 mg QD): 30,807 pg · h/ml | AUC0-24 hours Max ([1]; 2 mg QD): 125,837 pg · h/ml | AUC0-24 hours Min ([1]; 2 mg QD): 42,693 pg · h/ml | AUC0-last non-zero Max ([1]; 2 mg QD): 143,585 pg · h/ml | AUC0-last non-zero Min ([1]; 2 mg QD): 48,931 pg · h/ml | AUC0-∞ Max ([1]; 2 mg QD): 145,552 pg · h/ml | AUC0-∞ Min ([1]; 2 mg QD): 50,025 pg · h/ml | AUCover dosing interval Max ([1]; 2 mg QD): 125,837 pg · h/ml | AUCover dosing interval Min ([1]; 2 mg QD): 42,693 pg · h/ml | Cmax Max ([1]; 2 mg QD): 9,630 pg/ml | Cmax Min ([1]; 2 mg QD): 4,160 pg/ml | Ctrough Geometric mean ([1]; 2 mg QD): 929 pg/mL | Ctrough Max ([1]; 2 mg QD): 1,370 pg/ml | Ctrough Mean ([1]; 2 mg QD): 970 pg/mL | Ctrough Min ([1]; 2 mg QD): 0.536 ng/mL | AUC0-12 hours Max ([1]; 4 mg BID): 373,995 pg · h/ml | AUC0-12 hours Min ([1]; 4 mg BID): 39,111 pg · h/ml | AUC0-24 hours Max ([1]; 4 mg BID): 473,634 pg · h/ml | AUC0-24 hours Min ([1]; 4 mg BID): 43,350 pg · h/ml | AUC0-last non-zero Max ([1]; 4 mg BID): 586,513 pg · h/ml | AUC0-last non-zero Min ([1]; 4 mg BID): 43,356 pg · h/ml | AUC0-∞ Max ([1]; 4 mg BID): 587,424 pg · h/ml | AUC0-∞ Min ([1]; 4 mg BID): 44,654 pg · h/ml | AUCover dosing interval Max ([1]; 4 mg BID): 373,995 pg · h/ml | AUCover dosing interval Min ([1]; 4 mg BID): 39,111 pg · h/ml | Cmax Max ([1]; 4 mg BID): 47,800 pg/ml | Cmax Min ([1]; 4 mg BID): 7,750 pg/ml | Ctrough Geometric mean ([1]; 4 mg BID): 6,983 pg/ml | Ctrough Max ([1]; 4 mg BID): 15,600 pg/ml | Ctrough Mean ([1]; 4 mg BID): 10,001 pg/ml | Ctrough Min ([1]; 4 mg BID): 0.563 ng/mL | AUC0-12 hours Max ([1]; 8 mg BID): 830,085 pg · h/ml | AUC0-12 hours Min ([1]; 8 mg BID): 260,305 pg · h/ml | AUC0-24 hours Max ([1]; 8 mg BID): 1,140,247 pg · h/ml | AUC0-24 hours Min ([1]; 8 mg BID): 309,050 pg · h/ml | AUC0-last non-zero Max ([1]; 8 mg BID): 1,369,314 pg · h/ml | AUC0-last non-zero Min ([1]; 8 mg BID): 358,137 pg · h/ml | AUC0-∞ Max ([1]; 8 mg BID): 1,369,630 pg · h/ml | AUC0-∞ Min ([1]; 8 mg BID): 358,998 pg · h/ml | AUCover dosing interval Max ([1]; 8 mg BID): 830,085 pg · h/ml | AUCover dosing interval Min ([1]; 8 mg BID): 260,305 pg · h/ml
